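Protocol summary: plate cells (96-well), add compound at 5 concentrations, incubate 48 h, interpolate endpoints linearly. Here, GI50 denotes the concentration required for 50% inhibition of growth.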 Active and inactive are the calls of the source. Rule as the data show it: active = GI50 up to about 1.1 µM and inactive = higher.
Legend:
Assay in all cases: NCI-60 cell line screen, 48 h
CCRF-CEM = system: CCRF-CEM
HCT-15 = system: HCT-15
NCI-H23 = system: NCI-H23
OVCAR-3 = system: OVCAR-3
HOP-62 = system: HOP-62
RPMI-8226 = system: RPMI-8226
OVCAR-8 = system: OVCAR-8
COLO 205 = system: COLO 205
HCC 2998 = system: HCC 2998
SK-MEL-28 = system: SK-MEL-28
NCI-H226 = system: NCI-H226
SNB-19 = system: SNB-19
SN12C = system: SN12C
HT-29 = system: HT-29
M19-MEL = system: M19-MEL
MDA-N = system: MDA-N
HOP-92 = system: HOP-92
UACC-257 = system: UACC-257
CAKI-1 = system: CAKI-1
SK-OV-3 = system: SK-OV-3

Row | SMILES | GI50 (CCRF-CEM) | GI50 (HCT-15) [µM] | GI50 (NCI-H23) | GI50 (OVCAR-3) | GI50 (HOP-62) | GI50 (RPMI-8226) | GI50 (OVCAR-8) | GI50 (COLO 205) | GI50 (HCC 2998) | GI50 (SK-MEL-28) | GI50 (NCI-H226) | GI50 (SNB-19) | GI50 (SN12C) | GI50 (HT-29) | GI50 (M19-MEL) | GI50 (MDA-N) | GI50 (HOP-92) | GI50 (UACC-257) | GI50 (CAKI-1) | GI50 (SK-OV-3)
1 | COC(=O)c1c(C(=O)OC)c2cc(C(=O)c3ccccc3)ccn2c1Cl | 29.7 µM (inactive) | 20.9 | 23.1 µM (inactive) | 21.6 µM (inactive) | 37.2 µM (inactive) | 16.3 µM (inactive) | 30 µM (inactive) | 35.8 µM (inactive) | > 100 µM (inactive) | 35.8 µM (inactive) | 22.3 µM (inactive) | 34 µM (inactive) | 49.8 µM (inactive) | 47.1 µM (inactive) | 32.5 µM (inactive) |  |  |  |  | 
2 | COC(=O)c1ccc(-n2c(C)nc(=O)c(-c3ccccc3)c2C)cc1 | > 100 µM (inactive) | > 100 | > 100 µM (inactive) | > 100 µM (inactive) | > 100 µM (inactive) | > 100 µM (inactive) | > 100 µM (inactive) | > 100 µM (inactive) | > 100 µM (inactive) | > 100 µM (inactive) | > 100 µM (inactive) | > 100 µM (inactive) | > 100 µM (inactive) | > 100 µM (inactive) |  | > 10 µM (inactive) | > 100 µM (inactive) | > 100 µM (inactive) | > 100 µM (inactive) | > 100 µM (inactive)
3 | O=[N+]([O-])c1cccc(C2=NOC(C3CCCCC3)C2)c1 (stereo not drawn) | > 100 µM (inactive) | > 100 | > 100 µM (inactive) | > 100 µM (inactive) | > 100 µM (inactive) |  | > 100 µM (inactive) | > 100 µM (inactive) | > 100 µM (inactive) | > 100 µM (inactive) | > 100 µM (inactive) |  | > 100 µM (inactive) | 82 µM (inactive) | > 100 µM (inactive) |  | > 100 µM (inactive) | > 100 µM (inactive) |  | > 100 µM (inactive)
4 | O=P(CN1CCOCC1)(c1ccccc1)c1ccccc1 | > 100 µM (inactive) | > 100 | > 100 µM (inactive) | > 100 µM (inactive) | > 100 µM (inactive) | > 100 µM (inactive) | > 100 µM (inactive) | > 100 µM (inactive) |  | > 100 µM (inactive) |  | > 100 µM (inactive) | > 100 µM (inactive) | > 100 µM (inactive) | > 100 µM (inactive) |  | > 100 µM (inactive) | > 100 µM (inactive) | > 100 µM (inactive) | > 100 µM (inactive)
5 | Cc1c2n(c(=O)[nH]c1=O)C1OC(CO)C(O2)C1N=[N+]=[N-] (stereo not drawn) | > 100 µM (inactive) | > 100 | > 100 µM (inactive) | > 100 µM (inactive) | > 100 µM (inactive) | > 100 µM (inactive) | > 100 µM (inactive) | > 100 µM (inactive) |  | > 100 µM (inactive) | > 100 µM (inactive) | > 100 µM (inactive) | > 100 µM (inactive) | > 100 µM (inactive) | > 100 µM (inactive) |  | > 100 µM (inactive) | > 100 µM (inactive) | > 100 µM (inactive) | > 100 µM (inactive)
6 | O=C(O)CC1NCc2cc3ccccc3nc21 (stereo not drawn) | > 100 µM (inactive) | > 100 | > 100 µM (inactive) | > 100 µM (inactive) | > 100 µM (inactive) | > 100 µM (inactive) | > 100 µM (inactive) | > 100 µM (inactive) | > 100 µM (inactive) | > 100 µM (inactive) | > 100 µM (inactive) | > 100 µM (inactive) | > 100 µM (inactive) | > 100 µM (inactive) |  | > 100 µM (inactive) | > 100 µM (inactive) | > 100 µM (inactive) | > 100 µM (inactive) | > 100 µM (inactive)
7 | CCOP(=O)(OCC)C(C)(CC)NC1=NC(C(F)(F)F)(C(F)(F)F)NC(=O)N1 (stereo not drawn) | > 100 µM (inactive) | > 100 | > 100 µM (inactive) | > 100 µM (inactive) | > 100 µM (inactive) | > 100 µM (inactive) | > 100 µM (inactive) | > 100 µM (inactive) | > 100 µM (inactive) | > 100 µM (inactive) | 11.3 µM (inactive) | > 100 µM (inactive) | > 100 µM (inactive) | > 100 µM (inactive) |  | > 100 µM (inactive) | > 100 µM (inactive) | > 100 µM (inactive) | > 100 µM (inactive) | > 100 µM (inactive)
8 | Cc1cnc2c(C)ccc([N+](=O)[O-])c2c1NCCCN(C)C | > 100 µM (inactive) | > 100 | 31.5 µM (inactive) | > 100 µM (inactive) | > 100 µM (inactive) | > 100 µM (inactive) | > 100 µM (inactive) | > 100 µM (inactive) | > 100 µM (inactive) | > 100 µM (inactive) | > 100 µM (inactive) | > 100 µM (inactive) | > 100 µM (inactive) | > 100 µM (inactive) | > 100 µM (inactive) |  |  | > 100 µM (inactive) | > 100 µM (inactive) | 75.3 µM (inactive)
9 | N#CC1N(C(=O)c2ccc(F)cc2)c2ccccc2N1C(=O)c1ccc(F)cc1 | 28 µM (inactive) | 31.3 | 50.4 µM (inactive) | 19.9 µM (inactive) | > 100 µM (inactive) | 23.7 µM (inactive) | 48.1 µM (inactive) | 21.8 µM (inactive) | 39.7 µM (inactive) | 43.9 µM (inactive) | 31.1 µM (inactive) | > 100 µM (inactive) | 77.8 µM (inactive) | 33 µM (inactive) |  | 48.5 µM (inactive) | 18.5 µM (inactive) | 67.6 µM (inactive) | 62.8 µM (inactive) | > 100 µM (inactive)
10 | O=[N+]([O-])c1ccc(Sc2c3ccccc3nc3ccccc23)cc1 | > 100 µM (inactive) | > 100 | > 100 µM (inactive) | > 100 µM (inactive) | > 100 µM (inactive) | > 100 µM (inactive) | > 100 µM (inactive) | > 100 µM (inactive) | > 100 µM (inactive) | > 100 µM (inactive) | > 100 µM (inactive) | > 100 µM (inactive) | > 100 µM (inactive) | > 100 µM (inactive) | > 100 µM (inactive) |  |  | > 100 µM (inactive) | > 100 µM (inactive) | 
11 | NS(=O)(=O)c1ccc(NC(=S)N/C=C2\C(=O)Nc3ccccc3C2=O)cc1 | > 100 µM (inactive) | > 100 | > 100 µM (inactive) | > 100 µM (inactive) | > 100 µM (inactive) | > 100 µM (inactive) | > 100 µM (inactive) | > 100 µM (inactive) | > 100 µM (inactive) | > 100 µM (inactive) | > 100 µM (inactive) | > 100 µM (inactive) | > 100 µM (inactive) | > 100 µM (inactive) |  | > 100 µM (inactive) | > 100 µM (inactive) | > 100 µM (inactive) | 20.1 µM (inactive) | > 100 µM (inactive)
12 | CSCCC(N)C(=O)NCCNc1ccc(NCCNC(=O)C(N)CCSC)c2c1C(=O)c1ccccc1C2=O (stereo not drawn) | 0.528 µM (active) | 1.22 | 1.05 µM (active) | 3.03 µM (inactive) | 0.783 µM (active) | 1.35 µM (inactive) | 0.441 µM (active) | 1.16 µM (inactive) | 0.716 µM (active) | 1.75 µM (inactive) | 1.08 µM (active) | 0.927 µM (active) | 0.374 µM (active) | 0.535 µM (active) |  | 1.69 µM (inactive) | 1.1 µM (active) | 3.25 µM (inactive) | 1.03 µM (active) | 2.62 µM (inactive)
13 | Cc1cc(N(CCC#N)CCC#N)ccc1/N=N/c1ccc(Br)cc1 | > 31.6 µM (inactive) | 5.56 | 17.5 µM (inactive) | > 44.2 µM (inactive) | 6.41 µM (inactive) | > 45.9 µM (inactive) | > 37.6 µM (inactive) | > 100 µM (inactive) | > 27 µM (inactive) | > 100 µM (inactive) | 25.1 µM (inactive) | 16.1 µM (inactive) | > 36.8 µM (inactive) | > 100 µM (inactive) | > 53.3 µM (inactive) |  |  | > 100 µM (inactive) | 16.4 µM (inactive) | 2.64 µM (inactive)
14 | CC(C)c1nc2cc(C(F)(F)F)ccc2[nH]c1=O | 0.361 µM (active) | > 100 | > 100 µM (inactive) | 49.9 µM (inactive) | 79.8 µM (inactive) | > 100 µM (inactive) | > 100 µM (inactive) | > 100 µM (inactive) | > 100 µM (inactive) | > 100 µM (inactive) | 51.3 µM (inactive) | > 100 µM (inactive) | > 100 µM (inactive) | 72.1 µM (inactive) |  | > 100 µM (inactive) | 42.5 µM (inactive) | > 100 µM (inactive) | 72.6 µM (inactive) | > 100 µM (inactive)
15 | C=CC1C(OC2OC(CO)C(O)C(O)C2O)OC=C(C(=O)OC)C1CC=O (stereo not drawn) |  | > 100 | > 100 µM (inactive) | > 100 µM (inactive) | > 100 µM (inactive) | > 100 µM (inactive) |  | > 100 µM (inactive) |  | > 100 µM (inactive) | 37.8 µM (inactive) | > 100 µM (inactive) | > 100 µM (inactive) |  | > 100 µM (inactive) |  |  |  |  | > 100 µM (inactive)
16 | CNc1c2c(c3nc4ccccc4c4c3c1N=C4)NCCC2=O [PLAKINIDINE A] | 1.9 µM (inactive) | 6.4 | 7.13 µM (inactive) | 8.57 µM (inactive) | 8.59 µM (inactive) | 2.57 µM (inactive) | 2.38 µM (inactive) | 2.82 µM (inactive) | 5.08 µM (inactive) | > 10 µM (inactive) | 7.43 µM (inactive) | > 10 µM (inactive) | 4.22 µM (inactive) | 2.23 µM (inactive) |  | 7.35 µM (inactive) | 4.51 µM (inactive) | > 10 µM (inactive) | 4.69 µM (inactive) | 8.04 µM (inactive)

— ChEMBL document CHEMBL1201862, “PubChem BioAssay data set” (2004)
